The assay has as its system Plasmodium falciparum. Put plainly: Antimalarial activity against asexual blood stage of Plasmodium falciparum 3D7 infected in human erythrocytes assessed as inhibition of parasite growth and propagation incubated for 72 hrs by SYBR green dye based fluorescence assay. It counts as functional, organism-based. Conditions: 3D7, Erythrocyte.

Structures are written as SMILES.

In the case of `C[C@@H]1C[C@H](N2C(=N)N[C@](C)(c3cccc(NC(=O)c4cc(C#N)cn4C)c3Cl)CC2=O)CCO1`, the IC50 worked out at 5 nM.

For `C[C@@H]1C[C@H](N2C(=N)N[C@](C)(c3cccc(NC(=O)c4cccc(C#N)c4F)c3Cl)CC2=O)CCO1`, the concentration for half-maximal inhibition (IC50) was 6 nM. The result for `Cc1cc(Cl)cc(C(=O)Nc2cccc([C@]3(C)CC(=O)N([C@@H]4CCO[C@H](C)C4)C(=N)N3)c2Cl)c1` reads 9 nM; that for `C[C@@H]1C[C@H](N2C(=N)N[C@](C)(c3cccc(NC(=O)c4cccc(C#N)c4)c3Cl)CC2=O)CCO1`, 8 nM; that for `C[C@@H]1C[C@H](N2C(=N)N[C@](C)(c3cccc(NC(=O)c4cc(Cl)cc(C#N)c4)c3Cl)CC2=O)CCO1`, 7 nM.

For `C[C@@H]1C[C@H](N2C(=N)N[C@](C)(c3cccc(NC(=O)c4cccc(Cl)c4)c3Cl)CC2=O)CCO1`, the IC50 was 9 nM.

In general, IC50 refers to the point on the concentration scale where inhibition reaches its midpoint.

The values above are taken from ChEMBL document CHEMBL4706734, “Novel Hexahydropyrimidine Compounds for Treating Malaria” (ACS Med Chem Lett, 2021).
